# In patent US20250163065A1, “PYRROLOTRIAZINONE COMPOUND, PHARMACEUTICAL COMPOSITION COMPRISING SAME, PREPARATION METHOD THEREFOR, AND USE THEREOF” (SHANGHAITECH UNIVERSITY, priority 2022, published 2025):
# Like-named read-outs stand apart in the source and are kept apart here.
# Columns and labels:
# [1] = Pharmacokinetics and brain distribution in mice after single intraperitoneal injection; format: in vivo, male C57 mice; conditions: mouse, 10 mg/kg intraperitoneal; for half-life / Tmax / Cmax: C57, ip
# GPR139 = GPR139 (Homo sapiens (Human), UniProt Q6DWJ6); experiment: Agonistic activity on GPR139, calcium flux detection assay (FLIPR) in transfected CHO-K1 cells; format: cell-based; conditions: for EC50: calcium flux, CHO-K1 cells transfected with GPR139 plasmid, mean ± standard deviation; for Emax: CHO-K1
# BALB/c mice = experiment: Social interaction experiment in BALB/c mice (negative symptoms of schizophrenia); format: in vivo; conditions: for Social time: 10-minute period
# Excerpt: The experimental subjects were 6-week-old male BALB/c wild-type mice, weighing approximately 22 grams, purchased from Shanghai Lingchang Biotechnology Co., Ltd. They were housed in SPF-grade breeding facilities, with 2 mice per cage, under a 12-hour light/dark cycle, with free access to food and water. All behavioral experiments in this project were completed during the light cycle. The experiment adhered to all relevant regulations and guidelines for animal welfare and ethics, and was supervised and inspected by the ethics committee and laboratory animal managers.
# The length, width, and height of the behavioral box used in this experiment were all 40 cm. During the experiment, 4 mice were tested in 4 behavioral boxes at the same time. In this experiment, Etho Vision XT was used for experimental setup and video recording.
# The mice were 5 weeks old when purchased. After one week of observation, the experiment was started when they were 6 weeks old and weighed about 22 grams. Before each experiment, the experimental mice were restricted from eating 18 hours in advance. On the day of the experiment, the mice were transferred to the behavioral laboratory to familiarize themselves with the environment 1 hour in advance. Subsequently, they were administered by intraperitoneal injection, and each mouse was returned to its original cage after injection. After 20 minutes, the experimental mice were placed in the behavioral box to acclimate for 10 minutes. Then, a stimulus mouse (from the same batch of BALB/c) was placed in a corner of the behavioral box, away from the experimental mouse. The two mice were allowed to explore freely for 10 minutes while their activity was monitored and recorded by a camera, and the data was archived.
# The experimental data were analyzed. The social interaction time (including approaching, sniffing, grooming, chasing, attacking, etc.) was calculated for each experimental mouse over a 10-minute period, and the total social time of each mouse across different groups was analyzed by one-way analysis of variance.
# [2] = male, brain tissue, mean n=3, read-out: T1/2 Brain (converted)
# [3] = male, brain tissue, mean n=3, read-out: tmax Brain
# [4] = male, plasma, mean n=3, read-out: T1/2 Plasma (converted)
# [5] = male, plasma, mean n=3, read-out: tmax Plasma
# Sequence of GPR139 (Q6DWJ6 whole entry, species assumed): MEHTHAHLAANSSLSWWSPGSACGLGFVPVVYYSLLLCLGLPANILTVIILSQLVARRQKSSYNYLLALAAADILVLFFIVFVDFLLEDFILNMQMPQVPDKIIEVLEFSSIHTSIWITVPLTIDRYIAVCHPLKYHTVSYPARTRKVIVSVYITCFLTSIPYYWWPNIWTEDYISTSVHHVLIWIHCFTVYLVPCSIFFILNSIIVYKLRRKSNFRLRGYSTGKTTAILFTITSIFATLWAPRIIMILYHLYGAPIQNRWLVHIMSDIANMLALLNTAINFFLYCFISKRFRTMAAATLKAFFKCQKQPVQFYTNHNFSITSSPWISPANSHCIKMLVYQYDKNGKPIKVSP
structure (smiles),measurement,setting,value
C[C@H](NC(=O)Cn1ncc2cccn2c1=O)c1ccc(F)cc1 [Compound I-1],half-life,[1]; [2],19.2 min
same,Tmax,[1]; [3],30 min
same,Cmax,"[1]; male, plasma, mean n=3",700 ng/g
same,half-life,[1]; [4],42 min
same,Tmax,[1]; [5],30 min
same,Cmax Brain,"[1]; brain tissue, mean n=3",713 ng/g
"C[C@H](NC(=O)Cn1ncc2cccn2c1=O)c1ccccc1 [Compound I-4, (S)-2-(4-oxopyrrolo[1,2-d][1,2,4]triazin-3(4H)yl)-N-(1-phenylethyl)acetamide]",EC50,GPR139,0.111 ± 0.004 µM
"C[C@H](NC(=O)Cn1ncc2cccn2c1=O)c1ccc(OC(F)(F)F)cc1 [Compound I-5, (S)-2-(4-oxopyrrolo[1,2-d][1,2,4]triazin-3(4H)yl)-N-(1-(4-(trifluoromethoxy)phenyl)ethyl)acetamide]",One-way analysis of variance (social time),BALB/c mice; 0.3 mg/kg intraperitoneal,No difference
same,Social time,BALB/c mice; 0.3 mg/kg intraperitoneal,107 ± 15 s
same,One-way analysis of variance (social time),BALB/c mice; 1 mg/kg intraperitoneal,No difference
same,Social time,BALB/c mice; 1 mg/kg intraperitoneal,103 ± 17 s
same,Social time,BALB/c mice; 3 mg/kg intraperitoneal,129 ± 12 s
same,Effect on social disorders in mice,BALB/c mice; dose of 3 mg/kg,significant improvement effect
"Cc1ccc2cnn(CC(=O)N[C@@H](C)c3ccccc3)c(=O)n12 [Compound I-14, (S)-2-(6-methyl-4-oxopyrrolo[1,2-d][1,2,4]triazin-3(4H)yl)-N-(1-phenylethyl)acetamide]",EC50,GPR139,0.013 ± 0.002 µM
"Cc1ccc([C@H](C)NC(=O)Cn2ncc3c(C)cc(C)n3c2=O)cc1 [Compound I-18, (S)-2-(6,8-dimethyl-4-oxopyrrolo[1,2-d][1,2,4]triazin-3(4H)yl)-N-(1-(p-tolyl)ethyl)acetamide]",EC50,GPR139,0.093 ± 0.015 µM
"Cc1cc(C)n2c(=O)n(CC(=O)N[C@@H](C)c3ccc(Cl)cc3)ncc12 [Compound I-22, (S)—N-1-(4-chlorophenyl)ethyl-2-(6,8-dimethyl-4-oxopyrrolo[1,2-d][1,2,4]triazin-3(4H)yl)acetamide]",EC50,GPR139,0.056 ± 0.011 µM
"C[C@H](NC(=O)Cn1ncc2cccn2c1=O)c1ccc(C(F)(F)F)cc1 [Compound I-32, (S)-2-(4-oxopyrrolo[1,2-d][1,2,4]triazin-3(4H)yl)-N-(1-(4-(trifluoromethyl)phenyl)ethyl)acetamide]",half-life,[1]; [2],31.8 min
same,Tmax,[1]; [3],30 min
same,Cmax,"[1]; male, plasma, mean n=3",868 ng/g
same,half-life,[1]; [4],31.2 min
same,Tmax,[1]; [5],30 min
same,Cmax Brain,"[1]; brain tissue, mean n=3",1264 ng/g
"CC(C)[C@H](NC(=O)Cn1ncc2cccn2c1=O)c1ccc(F)cc1 [Compound I-37, (S)—N-(1-(4-fluorophenyl)-2-methylpropyl)-2-(4-oxopyrrolo[1,2-d][1,2,4]triazin-3(4H)yl)acetamide]",Emax,GPR139,92%
same,EC50,GPR139,0.12 µM
"Cc1ccc2cnn(CC(=O)N[C@H](c3ccc(F)cc3)C(C)C)c(=O)n12 [Compound I-39, (S)—N-(1-(4-fluorophenyl)-2-methylpropyl)-2-(6-methyl-4-oxopyrrolo[1,2-d][1,2,4]triazin-3(4H)yl)acetamide]",Emax,GPR139,94%
same,EC50,GPR139,0.026 µM
"C[C@H](NC(=O)Cn1nnc2ccccc2c1=O)c1ccc(OC(F)(F)F)cc1 [TAK-041, reference compound]",Social time,BALB/c mice; 1 mg/kg intraperitoneal,93 ± 26 s
same,Social time,BALB/c mice; 3 mg/kg intraperitoneal,129 ± 28 s
same,Kp,"[1]; male, C57, brain and plasma, ip",0.892
same,Tmax,[1]; [3],30 min
same,Tmax,[1]; [5],360 min
same,Cmax Brain,"[1]; brain tissue, mean n=3",6754 ng/g
same,T1/2 Brain,"[1]; brain tissue, mean n=3",108 h
same,Cmax Plasma,"[1]; plasma, mean n=3",7057 ng/g
